Experiments:
[1] = target: T1, rabbit E1 (Oryctolagus cuniculus, UniProt Q29504); experiment: E1 only assay (thiol-ester linkage of ubiquitin with E1); assay type: biochemical; conditions: FIG. 2D
T1 construct: purchased Calbiochem 6620700
T1 sequence (Q29504 1-1058): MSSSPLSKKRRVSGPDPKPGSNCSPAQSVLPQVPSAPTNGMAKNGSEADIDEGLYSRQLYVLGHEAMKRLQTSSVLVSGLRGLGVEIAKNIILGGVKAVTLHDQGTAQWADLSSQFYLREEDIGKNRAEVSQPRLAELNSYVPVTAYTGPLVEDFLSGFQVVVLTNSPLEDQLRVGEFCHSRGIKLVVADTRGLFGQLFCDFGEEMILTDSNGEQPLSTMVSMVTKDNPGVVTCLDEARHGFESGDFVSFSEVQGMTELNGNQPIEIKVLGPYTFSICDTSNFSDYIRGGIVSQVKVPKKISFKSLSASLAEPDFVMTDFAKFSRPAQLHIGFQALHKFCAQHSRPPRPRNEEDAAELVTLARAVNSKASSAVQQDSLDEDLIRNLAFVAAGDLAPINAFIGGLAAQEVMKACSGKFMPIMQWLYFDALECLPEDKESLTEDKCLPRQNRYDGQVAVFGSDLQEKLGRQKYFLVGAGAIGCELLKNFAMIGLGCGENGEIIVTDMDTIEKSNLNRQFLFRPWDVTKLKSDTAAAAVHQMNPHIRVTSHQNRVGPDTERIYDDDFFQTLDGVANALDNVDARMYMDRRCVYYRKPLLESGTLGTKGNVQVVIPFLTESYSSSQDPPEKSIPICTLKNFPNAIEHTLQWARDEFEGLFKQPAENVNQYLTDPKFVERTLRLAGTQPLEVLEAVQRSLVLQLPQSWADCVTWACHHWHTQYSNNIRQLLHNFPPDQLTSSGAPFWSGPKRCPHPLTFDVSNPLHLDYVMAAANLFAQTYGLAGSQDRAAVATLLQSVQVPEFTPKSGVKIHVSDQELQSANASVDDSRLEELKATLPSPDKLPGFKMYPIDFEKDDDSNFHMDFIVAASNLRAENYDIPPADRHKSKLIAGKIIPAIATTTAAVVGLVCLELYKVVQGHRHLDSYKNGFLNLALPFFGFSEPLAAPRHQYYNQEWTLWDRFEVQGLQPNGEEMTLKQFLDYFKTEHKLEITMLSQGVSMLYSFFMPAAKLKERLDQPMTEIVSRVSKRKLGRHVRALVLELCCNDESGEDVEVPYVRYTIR
Procedure: 2 μl rabbit E1 +12 μl of 1× reaction buffer are mixed together with the test compound followed by addition of 1 μl of ^32P Ub is added for 10 minutes at room temperature followed by resolution by SDS-PAGE under non-reducing conditions to maintain thiol-ester linkages and exposure as above.

[2] = target: T2, GST-UbcH5B (Homo sapiens, UniProt P62837); experiment: E1+E2 assay with immobilized E2 (thiol-ester linkage with E2); assay type: biochemical; conditions: FIG. 2E
T2 construct: made in house
Procedure: c. E1+E2 Assay with Immobilized E2
20 pmoles of bacterially-expressed GST-UbcH5B is bound to GS for 30 minutes at room temperature after washing in 50 mM Tris pH 7.5. Twenty (20) μl of 1× reaction buffer is added. After incubation with the test compound for 1 hour at 23° C. the beads were washed with 50 mM Tris pH 7.5. This was followed by addition of Rabbit E1/32P Ub cocktail (1 μl/1 μl) followed by incubation at 1 hour shaking at 23° C. This is followed by resolution by SDS-PAGE under non-reducing conditions and exposure as above.

[3] = system: Normal human fibroblast MRC-5; experiment: Cell based assay for accumulation of MDM2 and p53 (immunoblot); conditions: MRC-5 cells, 50 μM, 8 hours
Procedure: Methods: Normal human fibroblast MRC-5 were chosen to determine whether the compounds from the high throughput screening can inhibit the E3 activity of Mdm2, i.e. stabilizing MDM2 and p53 in vivo. After being seeded in 12-well tissue culture cluster overnight, the cells were treated with 50 μM of the compounds for 8 hours. They were harvested with trypsin-EDTA, washed with PBS, and lysed with RIPA buffer. Following removal of insoluble pellet by centrifugation for 20 minutes at 10000 rpm, the lysate was separated on 4-20% gradient SDS-polyacrylamide gel and transferred onto nitrocellulose membrane. The membrane was then blotted with anti-p53 antibody (DO-1), anti-MDM2 antibodies (Ab-1 and Ab-2), anti-p27 (Santa Cruz), anti-Nedd4, and anti-p21Waf1 antibody. After extensive washing with PBS containing 0.5% Triton X-100, it was incubated with HRP-labeled donkey anti-mouse antibody and visualized using enhanced chemiluminescence.

T2 sequence (P62837 whole entry): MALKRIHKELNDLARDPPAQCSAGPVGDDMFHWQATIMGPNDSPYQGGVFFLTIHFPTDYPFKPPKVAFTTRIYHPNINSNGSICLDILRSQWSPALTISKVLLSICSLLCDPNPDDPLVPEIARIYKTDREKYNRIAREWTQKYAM

O=c1nc2n(-c3cccc(Cl)c3)c3ccc([N+](=O)[O-])cc3cc-2c(=O)[nH]1 [Compound 98C07, 10-(-3-chloro-phenyl)-7-nitro-10H-pyrimido[4,5-b]quinoline-2,4-dione]
inhibition of thiol-ester linkage of ubiquitin with E1 [1]: inhibits neither thiol-ester linkages of ubiquitin with E1 nor E2
inhibition of thiol-ester linkage of ubiquitin with E2 [2]: inhibits neither thiol-ester linkages of ubiquitin with E1 nor E2
MDM2 level [3]: specifically increase MDM2 and p53
p53 level [3]: specifically increase MDM2 and p53
